Reference: patent publication US20230114280A1, “COMPOSITIONS AND METHODS CONTAINING REDUCED NICOTINAMIDE RIBOSIDE FOR PREVENTION AND TREATMENT OF NEUROLOGICAL DISEASES AND CONDITIONS” (SOCIETE DES PRODUITS NESTLE S.A., priority 2020, published 2023)
Entries after “also recorded” stand apart in the source; their conditions may differ. Counter-ions that a name gives are not always drawn. One block for each molecule: values may come before it.

What was measured:
mice = experiment: Tissue NAD+ levels after IP injection of NR or NRH in mice; assay type: in vivo; conditions: IP 500 mg/kg, after 1 h
INS1-cells = experiment: NAD+ levels after NRH treatment in INS1-cells; assay type: cell-based
[1] = Text: (§1) NR degradation to NAM has been proposed as a limitation for its pharmacological efficacy.
C2C12 myotubes = experiment: NAD+ levels after NRH treatment in C2C12 myotubes; assay type: cell-based
[2] = Stability of NRH or NR spiked in isolated mouse plasma; assay type: in vitro ADME
Experimental: (§2) The UHPLC consisted of a binary pump, a cooled autosampler, and a column oven (DIONEX Ultimate 3000 UHPLC+ Focused, Thermo Scientific), connected to a triple quadrupole spectrometer (TSQ Vantage, Thermo Scientific) equipped with a heated electrospray ionisation (H-ESI) source. Of each sample, 2 µL were injected into the analytical column (2.1 mm x 150 mm, 5 µm pore size, 200 Å HILICON iHILIC®-Fusion(P)), guarded by a pre-column (2.1 mm x 20 mm, 200 Å HILICON iHlLIC®-Fusion(P) Guard Kit) operating at 35° C. The mobile phase (10 mM ammonium acetate at pH 9, A, and acetonitrile, B) was pumped at 0.25 mL/min flow rate over a linear gradient of decreasing organic solvent (0.5-16 min, 90-25% B), followed by re-equilibration for a total run time of 30 min. The MS operated in positive mode at 3500 V with multiple reaction monitoring (MRM). The software Xcalibur v4.1.31.9 (Thermo Scientific) was used for instrument control, data acquisition and processing.
as §1

3T3 fibroblasts = experiment: NAD+ levels after NRH treatment in 3T3 fibroblasts; assay type: cell-based
[3] = system: Primary rat cortical neurons; experiment: Amyloid β oligomer induced loss of neurite network in primary cortical neurons (MAP-2 staining); assay type: cell-based; conditions: NRH 0.01 mM pre-incubated 24 hr or 6 hr, Aβ1-42 15 µmol/L for 24 h
Experimental: FIG. 7. […] Primary rat cortical neurons were cultured as described in Callizot et al., 2013. […] The Aβ1-42 preparation was done as described in Callizot et al., 2013. The Aβ1-42 preparation was added to a final concentration of 15 µmol/L (2.25 µmol/L oligomers, AβO) diluted in control medium in presence of compounds and let for 24 h. The cortical neurons were then fixed by a cold solution of ethanol (95%) and acetic acid (5%), permeabilized with saponin and incubated with an anti microtubule-associated-protein 2 (MAP-2), to stain cell bodies and neurites, allowing the study of the length of the neurite network. For each condition, 30 pictures (representative of the all well area) per well were taken using ImageXpress (Molecular Devices) with 20x magnification. Neurite length was then evaluated as % of control values. All values are expressed as mean +/-SEM from 5-6 independent wells. * indicates statistically significant difference vs. the amyloid b1-42 treated groups.
Primary rat cortical neurons were cultured as described in Callizot et al., 2013. […] The Aβ1-42 preparation was done as described in Callizot et al., 2013. The Aβ1-42 preparation was added to a final concentration of 15 µmol/L (2.25 µmol/L oligomers, AβO) diluted in control medium in presence of compounds and let for 24 h. […] Neurite length was then evaluated as % of control values.

AML12 cells = experiment: Pathway of NRH-induced NAD+ synthesis: intracellular metabolites and pathway inhibitors (NBTI, FK866, 5-IT, ABT-702, gallotannin); assay type: cell-based; set-up: action on NAD+ under adenosine kinase inhibition by 5-IT: dose or concentration left out as unconfirmed
Experimental: FIG. 4. NRH leads to NAD+ biosynthesis through an adenosine kinase dependent path. […] Then, 1 hour later, acidic extracts were obtained to measure NAD^+ levels. All values in the figure are expressed as mean +/- SEM of 3 independent experiments. * indicates statistical difference at p< 0.05 vs. the respective vehicle treated group.
A path in which NRH would be converted to NMNH, then to NADH and this would be finally oxidized to NAD+.
In order to understand the exact path by which NRH synthesizes NAD+, we initially evaluated whether NRH, could be transported into the cell by equilibrative nucleoside transporters (ENTs).
(§3) If NRH led to NAD+ synthesis via the formation of NMNH, this hypothetical path would require the phosphorylation of NRH into NMNH.
Considering the molecular structure of NRH, we reasoned that an alternative nucleoside kinase could be responsible for the phosphorylation of NRH.
As a follow-up step, NMNAT enzymes could catalyze the transition from NMNH to NADH.

[4] = Circulating NAM, NRH and NR after IP injection in mice; assay type: in vivo
Experimental: as §2

AML12 hepatocytes = experiment: Intracellular NAD+ levels in AML12 hepatocytes treated with NRH or NR (dose-response, time course); assay type: cell-based
Experimental: FIG. 3. NHR acts rapidly after 5 minutes from treatment.

[5] = system: primary hepatocytes from either control or NRK1 knockout (NRK1 KO) mice; experiment: NAD+ levels in primary hepatocytes from control or NRK1 knockout mice; assay type: cell-based; conditions: after 1 hour of treatment
Text: as §3

degradation to NAM in FBS supplemented media [1]: did not degrade to NAM | NR production on incubation in isolated plasma [2]: did not lead to NR production | NAM levels in circulation ([4]; mouse, in vivo, ip, 500 mg/kg): only a very mild increase
Molecule: dihydro-1-beta-D-ribofuranosyl-3-pyridinecarboxamide [NRH]
NAD+ levels in liver, muscle and kidney (mice): increased NAD+ levels in liver, muscle and kidney | NAD+ levels (INS1-cells): highly elevated NAD+ levels | NAD+ levels (C2C12 myotubes): highly elevated NAD+ levels | NAD+ levels (3T3 fibroblasts): highly elevated NAD+ levels | neurite network / neurite length after Amyloid β1-42 exposure [3]: protects against Amyloid β oligomer induced loss of neurite network; also recorded: protects against Amyloid β-oligomer induced toxicity in terms of neurite length | action on NAD+ under adenosine kinase inhibition by 5-IT (AML12 cells; 5-IT for 1 hour prior to NRH, NAD+ measured 1 hour later): fully ablated the action of NRH | formation of NR and NMN after NRH treatment with 5-IT (AML12 cells; 5-IT treatment): prevented the formation of NR and NMN | intracellular detection of NRH and NMNH (AML12 cells; 5 minutes after treatment): could be detected intracellularly | generation of NMNH, NADH and NAD+ upon inhibition of AK (metabolomic analyses) (AML12 cells; after NRH treatment): fully blunted | intracellular NR and NMN after treatment (AML12 cells; compared with NR treatment): increase in intracellular NR and NMN, greater than that triggered by NR itself | NAD+ synthesis with NMNAT inhibitor gallotannin (AML12 cells; gallotannin): largely compromised NAD+ synthesis | NRH action with gallotannin at maximal doses (AML12 cells; gallotannin, NRH 0.5 mM): part of the NRH action remained | NRH action with gallotannin at submaximal doses (AML12 cells; gallotannin, submaximal NRH doses): totally blocked | capacity as extracellular NAD+ precursor under ENT blockade (AML12 cells; in the presence of S-(4-nitrobenzyl)-6-thioinosine (NBTI)): largely lost its capacity as an extracellular NAD+ precursor | action on NAD+ under adenosine kinase inhibition by ABT-702 (AML12 cells; second, structurally different AK inhibitor ABT-702): role of AK in NRH-mediated NAD+ synthesis was confirmed | dependence of action on NAMPT (AML12 cells; with FK866, a NAMPT inhibitor): NAMPT-independent | NR in circulation ([4]; mouse, in vivo): much higher levels than those detected after NR injection itself | ability to increase intracellular NAD+ compared with NR (AML12 hepatocytes): better than NR; also recorded: superior to that of NR | concentration range of maximal effects on NAD+ synthesis (AML12 hepatocytes): around the millimolar range | time to significant increases in NAD+ levels after treatment (AML12 hepatocytes): ≤ 5 min | increase of intracellular NAD+ levels at maximal effect (AML12 hepatocytes; around the millimolar range): more than 10 fold | concentration at which NAD+ levels are significantly increased (AML12 hepatocytes; dose-response): 10 µM

NAD+ levels in NRK1 KO derived primary hepatocytes [5]: failed to increase NAD+ levels | generation of NAM in isolated mouse plasma ([2]; 2 h of incubation): increase in NAM | levels of the compound in isolated mouse plasma ([2]; 2 h of incubation): NR levels decayed in plasma | NAM levels in circulation ([4]; mice, IP 500 mg/kg): highly increased
Molecule: NC(=O)c1ccc[n+]([C@@H]2O[C@H](CO)[C@@H](O)[C@H]2O)c1 [NR, 1-b-D-ribofuranosyl-3-pyridinecarboxamide salt, reference compound]
NAD+ levels in liver, muscle and kidney (mice): increased NAD+ levels in liver, muscle and kidney
